Results published in the Kinase Knowledgebase extract (Sharma et al. 2016).

How the values were obtained:
PIK3CA (human) = PIK3CA (human) (UniProt P42336); assay: Assessment of PIK3CA Kinase Activity
[1] = biological target: PIK3CA (human), P42336 [H1047R]; assay: Assessment of PIK3CA(H1047R) Kinase Activity
[2] = biological target: PIK3CA (human), P42336 [E545K]; assay: Assessment of PIK3CA(E545K) Kinase Activity
PIK3CB (Human) = PIK3CB (Human) (UniProt P42338); assay: Assessment of PIK3CB Kinase Activity
PIK3CG (human) = PIK3CG (human) (UniProt P48736); assay: Assessment of PIK3CG Kinase Activity
Sequence of PIK3CG (human) (P48736 whole entry, looked up): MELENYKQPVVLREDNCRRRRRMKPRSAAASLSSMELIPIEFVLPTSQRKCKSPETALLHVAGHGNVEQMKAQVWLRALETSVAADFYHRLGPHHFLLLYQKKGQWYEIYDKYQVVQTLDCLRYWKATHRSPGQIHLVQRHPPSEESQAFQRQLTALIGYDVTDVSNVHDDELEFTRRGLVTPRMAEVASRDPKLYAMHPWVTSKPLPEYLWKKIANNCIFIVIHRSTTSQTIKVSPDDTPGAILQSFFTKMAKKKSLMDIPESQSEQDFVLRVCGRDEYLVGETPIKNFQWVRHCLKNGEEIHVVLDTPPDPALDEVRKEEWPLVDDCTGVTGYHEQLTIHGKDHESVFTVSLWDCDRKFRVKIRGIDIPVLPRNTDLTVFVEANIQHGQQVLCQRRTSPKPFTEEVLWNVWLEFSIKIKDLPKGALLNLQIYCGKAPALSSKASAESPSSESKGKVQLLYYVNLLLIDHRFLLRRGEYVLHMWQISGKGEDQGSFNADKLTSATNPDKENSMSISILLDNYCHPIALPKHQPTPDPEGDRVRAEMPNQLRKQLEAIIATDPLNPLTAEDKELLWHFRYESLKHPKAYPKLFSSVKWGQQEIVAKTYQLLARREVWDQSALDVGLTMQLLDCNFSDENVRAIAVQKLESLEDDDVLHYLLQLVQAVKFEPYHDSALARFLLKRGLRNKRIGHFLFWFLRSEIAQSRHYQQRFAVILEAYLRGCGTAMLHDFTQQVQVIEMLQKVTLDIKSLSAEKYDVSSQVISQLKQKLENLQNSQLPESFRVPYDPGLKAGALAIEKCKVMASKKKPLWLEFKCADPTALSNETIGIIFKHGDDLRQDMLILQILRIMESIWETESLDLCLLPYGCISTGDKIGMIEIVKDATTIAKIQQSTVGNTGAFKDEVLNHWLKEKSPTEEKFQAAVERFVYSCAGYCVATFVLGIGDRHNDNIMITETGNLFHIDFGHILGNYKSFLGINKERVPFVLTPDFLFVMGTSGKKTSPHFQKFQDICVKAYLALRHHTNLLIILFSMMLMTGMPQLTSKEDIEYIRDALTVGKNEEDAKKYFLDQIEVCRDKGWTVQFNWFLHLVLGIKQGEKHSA

Sequence of PIK3CA (human), P42336 [E545K] (P42336 whole entry E545K, looked up): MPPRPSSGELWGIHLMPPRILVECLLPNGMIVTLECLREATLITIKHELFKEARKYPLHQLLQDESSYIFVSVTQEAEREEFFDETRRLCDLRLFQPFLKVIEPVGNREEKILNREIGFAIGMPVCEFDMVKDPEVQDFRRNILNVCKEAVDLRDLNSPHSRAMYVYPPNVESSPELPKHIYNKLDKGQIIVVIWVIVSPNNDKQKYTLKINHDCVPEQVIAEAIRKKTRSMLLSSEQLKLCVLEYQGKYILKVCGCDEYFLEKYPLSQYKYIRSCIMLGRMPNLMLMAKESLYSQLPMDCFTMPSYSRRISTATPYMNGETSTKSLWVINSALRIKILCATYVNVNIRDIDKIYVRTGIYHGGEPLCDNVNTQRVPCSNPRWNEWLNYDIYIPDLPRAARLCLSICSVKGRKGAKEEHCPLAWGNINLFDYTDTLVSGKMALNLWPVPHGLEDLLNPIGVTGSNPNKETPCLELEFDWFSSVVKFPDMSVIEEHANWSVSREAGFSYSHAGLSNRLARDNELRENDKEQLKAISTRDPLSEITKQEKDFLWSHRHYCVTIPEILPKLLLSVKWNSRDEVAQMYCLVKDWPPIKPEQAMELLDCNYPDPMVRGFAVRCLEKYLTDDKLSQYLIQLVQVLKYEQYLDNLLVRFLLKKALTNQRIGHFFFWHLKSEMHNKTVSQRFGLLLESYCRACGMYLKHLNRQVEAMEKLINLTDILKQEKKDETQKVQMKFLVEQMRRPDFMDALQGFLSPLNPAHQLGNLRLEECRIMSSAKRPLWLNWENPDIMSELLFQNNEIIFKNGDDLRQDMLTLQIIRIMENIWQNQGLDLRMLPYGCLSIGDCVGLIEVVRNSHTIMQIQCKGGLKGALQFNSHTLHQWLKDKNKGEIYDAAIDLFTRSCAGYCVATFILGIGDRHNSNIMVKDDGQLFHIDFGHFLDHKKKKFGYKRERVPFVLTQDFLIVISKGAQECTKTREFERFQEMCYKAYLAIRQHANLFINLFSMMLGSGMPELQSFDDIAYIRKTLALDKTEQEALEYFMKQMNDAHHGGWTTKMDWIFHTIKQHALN
Sequence of PIK3CA (human), P42336 [H1047R] (P42336 whole entry H1047R, looked up): as the sequence (P42336 whole entry E545K, looked up) above, with K545E, H1047R counted along it
Sequence of PIK3CB (Human) (P42338 whole entry, looked up): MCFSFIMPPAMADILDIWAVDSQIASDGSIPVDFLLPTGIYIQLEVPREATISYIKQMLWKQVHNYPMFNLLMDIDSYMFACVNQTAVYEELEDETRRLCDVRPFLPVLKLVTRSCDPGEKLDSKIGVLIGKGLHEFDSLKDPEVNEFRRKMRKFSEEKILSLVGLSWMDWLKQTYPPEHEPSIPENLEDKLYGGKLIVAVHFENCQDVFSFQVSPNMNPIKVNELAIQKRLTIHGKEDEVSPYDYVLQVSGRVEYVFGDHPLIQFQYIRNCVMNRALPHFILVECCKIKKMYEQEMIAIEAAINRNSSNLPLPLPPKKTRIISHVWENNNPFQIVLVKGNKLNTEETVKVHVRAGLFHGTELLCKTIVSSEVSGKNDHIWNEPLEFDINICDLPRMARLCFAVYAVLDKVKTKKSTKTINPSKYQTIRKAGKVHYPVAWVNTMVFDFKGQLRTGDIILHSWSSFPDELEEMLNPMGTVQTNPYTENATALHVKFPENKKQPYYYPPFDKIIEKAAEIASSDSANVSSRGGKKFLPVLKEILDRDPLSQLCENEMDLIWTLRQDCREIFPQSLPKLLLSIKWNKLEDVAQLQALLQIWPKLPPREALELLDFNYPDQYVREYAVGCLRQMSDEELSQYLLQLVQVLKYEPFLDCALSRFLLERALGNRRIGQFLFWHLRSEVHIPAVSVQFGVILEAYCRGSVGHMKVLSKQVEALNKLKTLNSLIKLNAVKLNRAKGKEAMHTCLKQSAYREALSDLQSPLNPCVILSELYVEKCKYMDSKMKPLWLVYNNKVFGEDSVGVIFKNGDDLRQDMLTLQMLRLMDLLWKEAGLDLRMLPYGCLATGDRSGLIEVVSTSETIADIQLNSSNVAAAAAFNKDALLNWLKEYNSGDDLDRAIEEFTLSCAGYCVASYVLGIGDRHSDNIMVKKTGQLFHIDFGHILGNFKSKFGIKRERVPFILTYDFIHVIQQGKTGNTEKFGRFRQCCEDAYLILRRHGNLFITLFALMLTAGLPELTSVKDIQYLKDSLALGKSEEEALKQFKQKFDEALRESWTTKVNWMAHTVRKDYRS
Sequence of PIK3CA (human) (P42336 whole entry, looked up): as the sequence (P42336 whole entry E545K, looked up) above, with K545E counted along it

Row | SMILES | IC50 (PIK3CA (human)) [µM] | IC50 [1] [µM] | IC50 [2] [µM] | IC50 (PIK3CB (Human)) [µM] | IC50 (PIK3CG (human)) [µM]
1 | CN(C)C(=O)c1ccc(NC(=O)Nc2ccc(-c3nc(N4CCOCC4)c4ncc(-c5cccnc5F)cc4n3)cn2)cc1 | < 0.05 | < 0.05 | < 0.05 | < 0.05 | < 0.5
2 | CN(C)C(=O)c1ccc(NC(=O)Nc2ccc(-c3nc(N4CCOCC4)c4ccc(-c5cncnc5)cc4n3)cc2)c(F)c1 | < 0.05 | 0.05 to 0.5 | 0.05 to 0.5 | 0.05 to 0.5 | < 0.5
3 | CN(C)C(=O)c1ccc(NC(=O)Nc2ccc(-c3nc(N4CCOCC4)c4ccc(-c5cccnc5F)cc4n3)cc2)c(F)c1 | 0.05 to 0.2 | 0.05 to 0.5 | 0.05 to 0.5 | 0.05 to 0.5 | –
4 | CN(C)C(=O)c1ccc(NC(=O)Nc2ccc(-c3nc(N4CCOCC4)c4ccc(-c5cnc(O)nc5)cc4n3)cc2)cc1 | < 0.05 | – | – | – | –
5 | Cc1noc(C)c1-c1cc2nc(-c3ccc(NC(=O)Nc4ccc(C(=O)N(C)C)cc4)cc3)nc(N3CCOCC3)c2cc1F | 0.05 to 0.2 | – | – | – | –
6 | CN(C)[C@H]1CCN(C(=O)c2ccc(NC(=O)Nc3ccc(-c4nc(N5CCOCC5)c5ccc(-c6cncnc6)cc5n4)cc3F)cc2)C1 | < 0.05 | – | – | – | –
7 | CC(=O)Nc1cccc(-c2ccc3c(N4CCOCC4)nc(-c4ccc(NC(=O)Nc5ccc(C(=O)N(C)C)cc5)cc4)nc3c2)c1 | < 0.05 | – | – | – | –
8 | CN(C)CCN(C)C(=O)c1ccc(NC(=O)Nc2ccc(-c3nc(N4CCOCC4)c4ccc(-c5cncnc5)cc4n3)cc2)cc1 | < 0.05 | – | – | – | –
9 | Cc1nn(C)c(C)c1-c1ccc2c(N3CCOCC3)nc(-c3ccc(NC(=O)Nc4ccc(C(=O)N(C)C)cc4)cc3F)nc2c1 | < 0.05 | – | – | – | –
10 | CN(C)C(=O)c1ccc(NC(=O)Nc2ccc(-c3nc(N4CCOCC4)c4ncc(-c5ccnnc5)cc4n3)cc2)cc1 | < 0.05 | – | – | – | –

More lines, now with the values ahead:

Row | IC50 (PIK3CA (human)) [µM] | IC50 [1] [µM] | IC50 [2] [µM] | IC50 (PIK3CB (Human)) [µM] | IC50 (PIK3CG (human)) [µM] | SMILES
11 | < 0.05 | < 0.05 | < 0.05 | – | – | CN(C)C(=O)c1ccc(NC(=O)Nc2ccc(-c3nc(N4CCOCC4)c4ccc(-c5cncnc5)cc4n3)cc2)cc1
12 | < 0.05 | < 0.05 | < 0.05 | < 0.05 | < 0.5 | CN(C)C(=O)c1ccc(NC(=O)Nc2ccc(-c3nc(N4CCOCC4)c4cc(F)c(-c5cnn(C)c5)cc4n3)cn2)cc1
13 | < 0.05 | < 0.05 | < 0.05 | < 0.05 | < 0.5 | CN(C)C(=O)c1ccc(NC(=O)Nc2ccc(-c3nc(N4CCOCC4)c4ccc(-c5cccc(S(C)(=O)=O)c5)cc4n3)cn2)cc1
14 | < 0.05 | < 0.05 | < 0.05 | < 0.05 | < 0.5 | CN(C)C(=O)c1ccc(NC(=O)Nc2ccc(-c3nc(N4CCOCC4)c4ccc(-c5cccnc5F)cc4n3)cn2)cc1
15 | < 0.05 | < 0.05 | < 0.05 | < 0.05 | < 0.5 | CN(C)C(=O)c1ccc(NC(=O)Nc2ccc(-c3nc(N4CCOCC4)c4ccc(-c5ccco5)cc4n3)cc2)cc1
16 | < 0.05 | 0.05 to 0.5 | 0.05 to 0.5 | 0.05 to 0.5 | < 0.5 | CN(C)C(=O)c1ccc(NC(=O)Nc2ccc(-c3nc(N4CCOCC4)c4ccc(-c5cccnc5)cc4n3)cc2)c(F)c1
17 | < 0.05 | < 0.05 | < 0.05 | 0.5 to 1 | 0.5 to 1 | Cc1ccc(-c2ccc3c(N4CCOCC4)nc(-c4ccc(NC(=O)Nc5ccc(C(=O)N(C)C)cc5)cc4)nc3c2)o1
18 | < 0.05 | < 0.05 | < 0.05 | < 0.05 | < 0.5 | CN(C)C(=O)c1ccc(NC(=O)Nc2ccc(-c3nc(N4CCOCC4)c4ncc(-c5cccc(S(C)(=O)=O)c5)cc4n3)cn2)cc1
19 | < 0.05 | < 0.05 | < 0.05 | < 0.05 | < 0.5 | CN(C)C(=O)c1ccc(NC(=O)Nc2ccc(-c3nc(N4CCOCC4)c4ccc(-c5cccc(S(C)(=O)=O)c5)cc4n3)cn2)cc1F
20 | < 0.05 | < 0.05 | < 0.05 | 0.05 to 0.5 | < 0.5 | CN(C)C(=O)c1ccc(NC(=O)Nc2ccc(-c3nc(N4CCOCC4)c4ncc(-c5cccc(S(C)(=O)=O)c5)cc4n3)cc2F)cc1
